# Measurements published in PubChem BioAssay (NCI).
#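 Where inhibition never reached the appropriate level, the endpoint shown equals the highest concentration tested. Otherwise, values were interpolated linearly from a five-concentration, 48-hour dose response in 96-well plates. GI50 marks 50% less growth. TGI: total growth inhibition.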
# Tests used:
# Test in all cases: NCI tumour cell line growth inhibition, 48 h
# SF-539 CNS = tested on: SF-539 CNS
# HT29 colon = tested on: HT29 colon
# 786-0 renal = tested on: 786-0 renal
# NCI-H226 lung = tested on: NCI-H226 lung
# SK-OV-3 ovarian = tested on: SK-OV-3 ovarian
# M14 melanoma = tested on: M14 melanoma
# HS 578T breast = tested on: HS 578T breast
# SR leukemia = tested on: SR leukemia
# T-47D breast = tested on: T-47D breast
# HOP-92 NSCLC = tested on: HOP-92 NSCLC
# KM12 colon = tested on: KM12 colon
# SNB-75 CNS = tested on: SNB-75 CNS
# UACC-257 melanoma = tested on: UACC-257 melanoma
# TK-10 renal = tested on: TK-10 renal
# NCI-H522 lung = tested on: NCI-H522 lung
# OVCAR-4 ovarian = tested on: OVCAR-4 ovarian
# MCF7 breast = tested on: MCF7 breast
# UACC-62 melanoma = tested on: UACC-62 melanoma
# HCT-15 colon = tested on: HCT-15 colon
# A549 NSCLC = tested on: A549 NSCLC
# LOX IMVI melanoma = tested on: LOX IMVI melanoma
# IGROV1 ovarian = tested on: IGROV1 ovarian
# UO-31 renal = tested on: UO-31 renal
# RXF 393 renal = tested on: RXF 393 renal
# SN12C renal = tested on: SN12C renal
# OVCAR-8 ovarian = tested on: OVCAR-8 ovarian
# HCT-116 colon = tested on: HCT-116 colon
# RPMI-8226 leukemia = tested on: RPMI-8226 leukemia
# MDA-MB-231 breast = tested on: MDA-MB-231 breast
smiles,measurement,setting,value
CC(=O)OC[C@]1(C)C=C2C(=O)[C@](C)(O)C3(CC3)C(C)=C2[C@H]1O,GI50,SF-539 CNS,166 nM
same,TGI,SF-539 CNS,388 nM
same,GI50,HT29 colon,33.9 nM
same,TGI,HT29 colon,> 100000 nM
same,GI50,786-0 renal,41.1 nM
same,TGI,786-0 renal,350 nM
same,GI50,NCI-H226 lung,217 nM
same,TGI,NCI-H226 lung,634 nM
same,GI50,SK-OV-3 ovarian,194 nM
same,TGI,SK-OV-3 ovarian,1110 nM
same,GI50,M14 melanoma,89.9 nM
same,GI50,HS 578T breast,296 nM
same,TGI,HS 578T breast,1090 nM
same,GI50,SR leukemia,66.7 nM
same,TGI,SR leukemia,> 100000 nM
same,GI50,T-47D breast,207 nM
same,TGI,T-47D breast,3650 nM
same,GI50,HOP-92 NSCLC,148 nM
same,TGI,HOP-92 NSCLC,623 nM
same,GI50,KM12 colon,191 nM
same,TGI,KM12 colon,> 34700 nM
same,GI50,SNB-75 CNS,152 nM
same,TGI,SNB-75 CNS,350 nM
same,GI50,UACC-257 melanoma,280 nM
same,TGI,UACC-257 melanoma,1120 nM
same,GI50,TK-10 renal,233 nM
same,TGI,TK-10 renal,2990 nM
same,GI50,NCI-H522 lung,79.8 nM
same,TGI,NCI-H522 lung,390 nM
same,GI50,OVCAR-4 ovarian,94 nM
same,TGI,OVCAR-4 ovarian,649 nM
same,GI50,MCF7 breast,27.3 nM
same,TGI,MCF7 breast,15500 nM
same,GI50,UACC-62 melanoma,89.4 nM
same,TGI,UACC-62 melanoma,302 nM
same,GI50,HCT-15 colon,30.6 nM
same,TGI,HCT-15 colon,31800 nM
same,GI50,A549 NSCLC,172 nM
same,TGI,A549 NSCLC,2800 nM
same,GI50,LOX IMVI melanoma,87.5 nM
same,TGI,LOX IMVI melanoma,650 nM
same,GI50,IGROV1 ovarian,45.7 nM
same,TGI,IGROV1 ovarian,364 nM
same,GI50,UO-31 renal,114 nM
same,TGI,UO-31 renal,273 nM
same,GI50,RXF 393 renal,61.2 nM
same,TGI,RXF 393 renal,199 nM
same,GI50,SN12C renal,251 nM
same,TGI,SN12C renal,6210 nM
same,GI50,OVCAR-8 ovarian,177 nM
same,TGI,OVCAR-8 ovarian,4510 nM
same,GI50,HCT-116 colon,32.1 nM
same,TGI,HCT-116 colon,> 100000 nM
same,GI50,RPMI-8226 leukemia,13900 nM
same,TGI,RPMI-8226 leukemia,> 81500 nM
same,GI50,MDA-MB-231 breast,152 nM
same,TGI,MDA-MB-231 breast,806 nM
